# Measured values taken from US12071423B2, “Processes and intermediate for the large-scale preparation of 2,4,6-trifluoro-N-[6-(1-methyl-piperidine-4-carbonyl)-pyridin-2-yl]-benzamide hemisuccinate, and preparation of 2,4,6-trifluoro-N-[6-(1-methyl-piperidine-4-carbonyl)-pyridin-2-yl]-benzamide acetate” (Eli Lilly and Company, priority 2019, dated 2024).
# Where a name gives a salt, the structure may show the parent alone. Read-outs that look alike come from different tables or passages of the source.
# Columns and labels:
# Type in all cases: physicochemical
# [1] = Form and chemical stability studies of the intermediate
# Text: [drawing 6] which can be named as (6-amino-2-pyridyl)-(1-methyl-4-piperidyl)methanone dihydrate dihydrochloride. Preferably this compound is crystalline. (6-amino-2-pyridyl)-(1-methyl-4-piperidyl)methanone dihydrate dihydrochloride is particularly useful in the preparation of 2,4,6-trifluoro-N-[6-(1-methylpiperidine-4-carbonyl)-2-pyridyl]benzamide hemisuccinate, and processes which employ (6-amino-2-pyridyl)-(1-methyl-4-piperidyl)methanone dihydrate dihydrochloride may provide advantageous process characteristics, including but not limited to the purity of intermediate and/or final materials. (6-amino-2-pyridyl)-(1-methyl-4-piperidyl)methanone dihydrate dihydrochloride is believed to be a new stable hydrated form of 6-amino-2-pyridyl)-(1-methyl-4-piperidyl)methanone. The process to isolate (6-amino-2-pyridyl)-(1-methyl-4-piperidyl)methanone dihydrate dihydrochloride described herein provides improved impurity rejection and an improved controlled crystallization process. […] Use of this intermediate provides advantageously high purity product at expected yield.
# [2] = Solubility in 10 mmol acetate, citrate or phosphate buffer (excess solid equilibrated at RT overnight, HPLC)
# Description: Lasmiditan acetate was discovered to enable a desired dose target of about 50 mg in the minimal volume of less than or equal to about 1 mL, while at the same time achieving a desired target pH being close to neutral, and in addition being relatively isotonic and physically and chemically stable. […] For solubility determinations 10 mmol buffer is made with a respective acid and salt, and pH is adjusted by changing the acid/salt ratio. Excess solid is equilibrated at RT overnight, and solution concentration is analyzed by HPLC and solid was characterized by XRPD. In contrast, for lasmiditan acetate it was discovered that solubility of >50 mg/mL can be achieved, at close to neutral pH, without adjusting the pH.
# [3] = Dissolution of lasmiditan acetate at 50 mg/mL: pH and tonicity of the solution; conditions: dissolution at 50 mg/mL
# Description: (§1) Lasmiditan acetate enables the desired solubility to provide high concentration formulations having a less than or equal to about 1 mL dose volume, for the desired unit doses, which is critical for clinical applications such as use in available autoinjector devices. In addition, dissolution of lasmiditan acetate at 50 mg/mL results in close to neutral pH (pH approximately 6.8), is isotonic, and stable for at least 2 months.
# [4] = Stability of lasmiditan acetate 50 mg/mL solution; conditions: dissolution at 50 mg/mL
# Description: as §1
smiles,measurement,setting,value
CN1CCC(C(=O)c2cccc(N)n2)CC1 [(6-amino-2-pyridyl)-(1-methyl-4-piperidyl)methanone dihydrate dihydrochloride],form and chemical stability,[1],generally stable
"CC(=O)O.CN1CCC(C(=O)c2cccc(NC(=O)c3c(F)cc(F)cc3F)n2)CC1 [Lasmiditan Acetate, 2,4,6-trifluoro-N-[6-(1-methylpiperidine-4-carbonyl)-2-pyridyl]benzamide acetate]",solubility compared with lasmiditan hemisuccinate salt,[2],significantly higher solubility
same,solubility,"[2]; 10 mmol acetate buffer, pH 3.69, aqueous buffer, thermodynamic from solid, Acetate buffer, pH (before) 3.69, free base eq., all added solute went into solution, read-out: Solubility (Free Base eq. mg/mL)",> 441 mg/mL
same,solubility,"[2]; 10 mmol acetate buffer, pH 4.05, aqueous buffer, thermodynamic from solid, Acetate buffer, pH (before) 4.05, free base eq., all added solute went into solution, read-out: Solubility (Free Base eq. mg/mL)",> 430 mg/mL
same,solubility,"[2]; 10 mmol acetate buffer, pH 4.4, aqueous buffer, thermodynamic from solid, Acetate buffer, pH (before) 4.4, free base eq., all added solute went into solution, read-out: Solubility (Free Base eq. mg/mL)",> 412 mg/mL
same,solubility,"[2]; 10 mmol acetate buffer, pH 5.09, aqueous buffer, thermodynamic from solid, Acetate buffer, pH (before) 5.09, free base eq., all added solute went into solution, read-out: Solubility (Free Base eq. mg/mL)",> 430 mg/mL
same,solubility,"[2]; 10 mmol acetate buffer, pH 5.71, aqueous buffer, thermodynamic from solid, Acetate buffer, pH (before) 5.71, free base eq., all added solute went into solution, read-out: Solubility (Free Base eq. mg/mL)",> 486 mg/mL
same,solubility,"[2]; 10 mmol buffer (acetate, citrate or phosphate), pH 6.8, thermodynamic from solid, at close to neutral pH, without adjusting the pH, read-out: solubility",> 50 mg/mL
same,solubility,"[2]; 10 mmol citrate buffer, pH 2.5, aqueous buffer, thermodynamic from solid, Citrate buffer, pH (before) 2.5, free base eq., all added solute went into solution, read-out: Solubility (Free Base eq. mg/mL)",> 300 mg/mL
same,solubility,"[2]; 10 mmol citrate buffer, pH 3.84, aqueous buffer, thermodynamic from solid, Citrate buffer, pH (before) 3.84, free base eq., all added solute went into solution, read-out: Solubility (Free Base eq. mg/mL)",> 300 mg/mL
same,solubility,"[2]; 10 mmol citrate buffer, pH 4.99, aqueous buffer, thermodynamic from solid, Citrate buffer, pH (before) 4.99, free base eq., all added solute went into solution, read-out: Solubility (Free Base eq. mg/mL)",> 300 mg/mL
same,solubility,"[2]; 10 mmol citrate buffer, pH 5.96, aqueous buffer, thermodynamic from solid, Citrate buffer, pH (before) 5.96, free base eq., all added solute went into solution, read-out: Solubility (Free Base eq. mg/mL)",> 300 mg/mL
same,solubility,"[2]; 10 mmol phosphate buffer, pH 8.24, aqueous buffer, thermodynamic from solid, Phosphate buffer, pH (before) 8.24, free base eq., all added solute went into solution, read-out: Solubility (Free Base eq. mg/mL)",> 300 mg/mL
same,pH (after),"[2]; Acetate buffer, pH (before) 3.69",6.25
same,pH (after),"[2]; Acetate buffer, pH (before) 4.05",6.41
same,pH (after),"[2]; Acetate buffer, pH (before) 4.4",6.31
same,pH (after),"[2]; Acetate buffer, pH (before) 5.09",6.50
same,pH (after),"[2]; Acetate buffer, pH (before) 5.71",6.56
same,pH (after),"[2]; Citrate buffer, pH (before) 2.5",5.60
same,pH (after),"[2]; Citrate buffer, pH (before) 3.84",5.72
same,pH (after),"[2]; Citrate buffer, pH (before) 4.99",6.23
same,pH (after),"[2]; Citrate buffer, pH (before) 5.96",6.24
same,pH (after),"[2]; Phosphate buffer, pH (before) 8.24",6.42
same,pH on dissolution,[3],approximately 6.8
same,tonicity of solution,[3],isotonic
same,stability of solution,[4],at least 2 months
"CN1CCC(C(=O)c2cccc(NC(=O)c3c(F)cc(F)cc3F)n2)CC1 [lasmiditan hemisuccinate, 2,4,6-trifluoro-N-[6-(1-methylpiperidine-4-carbonyl)-2-pyridyl]benzamide hemisuccinate, reference compound]",achieving >50 mg/mL solubility,[2]; at close to neutral pH,difficult without using co-solvents
